Measurements taken from publication PMC11596972, “Synthesis and Antimicrobial Activity of 3-Alkylidene-2-Indolone Derivatives” (Molecules, 2024).
In brackets after ≈: the same amount, converted by molar mass. Like-named read-outs stand apart in the source and are kept apart here.

Experiments:
S. aureus 4220 = assay: MIC, double dilution method, S. aureus 4220; assay type: cell-based; conditions: Staphylococcus aureus, 4220, 24 h
P. aeruginosa CMCC 10211 = assay: MIC, double dilution method, P. aeruginosa CMCC 10211; assay type: cell-based; conditions: Pseudomonas aeruginosa
E. coli ATCC 25922 = assay: MIC, double dilution method, E. coli ATCC 25922; assay type: cell-based; conditions: Escherichia coli
E. coli 1924 = assay: MIC, double dilution method, E. coli 1924; assay type: cell-based, Escherichia coli
C. albicans CMCC 98001 = assay: MIC, double dilution method, C. albicans CMCC 98001; assay type: cell-based, Candida albicans; conditions: for MIC: C. albicans CMCC 98001, fungus, 24 h culture
S. aureus ATCC 6538 = assay: MIC, double dilution method, S. aureus ATCC 6538; assay type: cell-based; conditions: Staphylococcus aureus, ATCC6538, 24 h
MRSA ATCC 43300 = assay: MIC, double dilution method, MRSA ATCC 43300; assay type: cell-based, Methicillin-resistant Staphylococcus aureus; conditions: Staphylococcus aureus, 24 h, MRSA ATCC 43300, Gram-positive, 24 h culture
[1] = S. aureus 4220, Gram-positive, 24 h culture, read-out: MIC
[2] = CMCC10211, P. aeruginosa CMCC 10211, Gram-negative, 24 h culture, read-out: MIC
[3] = ATCC25922, E. coli ATCC 25922, Gram-negative, 24 h culture, read-out: MIC
[4] = Escherichia coli, E. coli 1924, Gram-negative, 24 h culture, read-out: MIC
[5] = Candida albicans, CMCC98001, 24 h, read-out: MIC
[6] = S. aureus ATCC 6538, Gram-positive, 24 h culture, read-out: MIC
[7] = Candida albicans, CMCC98001, 24 h

C/C(O)=C1/C(=O)N(C)c2cc(C(F)(F)F)ccc21 [Compound 5r, (Z)-3-(1-hydroxyethylidene)-1-methyl-6-(trifluoromethyl)indolin-2-one]
MIC (S. aureus 4220; [1]): 64 µg/mL (≈ 249 µM) | MIC (P. aeruginosa CMCC 10211; [2]): > 64 µg/mL | MIC (E. coli ATCC 25922; [3]): > 64 µg/mL | MIC (E. coli 1924; [4]): > 64 µg/mL | antifungal activity (class in words) (C. albicans CMCC 98001; C. albicans CMCC 98001): moderate antifungal activity | MIC (C. albicans CMCC 98001): 16 µg/mL (≈ 62.2 µM) | MIC (C. albicans CMCC 98001; [5]): 8 to 16 µg/mL (≈ 31.1 to 62.2 µM)

C/C(O)=C1/C(=O)N(C)c2c(Cl)cccc21 [Compound 5i, (Z)-7-chloro-3-(1-hydroxyethylidene)-1-methylindolin-2-one]
MIC (S. aureus 4220; [1]): 32 µg/mL (≈ 143 µM) | MIC (S. aureus ATCC 6538; [6]): 32 µg/mL (≈ 143 µM) | MIC (MRSA ATCC 43300; read-out: MIC): 64 µg/mL (≈ 286 µM) | MIC (P. aeruginosa CMCC 10211; [2]): 64 µg/mL (≈ 286 µM) | MIC (E. coli ATCC 25922; [3]): > 64 µg/mL | MIC (E. coli 1924; [4]): 8 µg/mL (≈ 35.8 µM) | MIC (C. albicans CMCC 98001; [5]): 64 µg/mL (≈ 286 µM)

C/C(O)=C1/C(=O)N(C)c2cc(Cl)ccc21 [Compound 5j, (Z)-6-chloro-3-(1-hydroxyethylidene)-1-methylindolin-2-one]
MIC (S. aureus 4220; [1]): 32 µg/mL (≈ 143 µM) | MIC (MRSA ATCC 43300; read-out: MIC): > 64 µg/mL | MIC (P. aeruginosa CMCC 10211; [2]): > 64 µg/mL | MIC (E. coli ATCC 25922; [3]): > 64 µg/mL | MIC (E. coli 1924; [4]): 8 µg/mL (≈ 35.8 µM) | MIC (C. albicans CMCC 98001; [5]): 64 µg/mL (≈ 286 µM)

CCCN1C(=O)/C(=C(/C)O)c2ccccc21 [Compound 5v, (Z)-3-(1-hydroxyethylidene)-1-propylindolin-2-one]
MIC (S. aureus 4220; [1]): 64 µg/mL (≈ 295 µM) | MIC (S. aureus ATCC 6538; [6]): 64 µg/mL (≈ 295 µM) | MIC (P. aeruginosa CMCC 10211; [2]): > 64 µg/mL | MIC (E. coli ATCC 25922; [3]): > 64 µg/mL | MIC (E. coli 1924; [4]): 16 µg/mL (≈ 73.6 µM) | MIC (C. albicans CMCC 98001; [5]): 32 µg/mL (≈ 147 µM)

CN1C(=O)/C(=C(\O)c2ccccc2)c2ccccc21 [Compound 10b, (Z)-3-(hydroxy(phenyl)methylene)-1-methylindolin-2-one]
MIC (S. aureus 4220): 32 µg/mL (≈ 127 µM) | MIC (S. aureus ATCC 6538): 8 µg/mL (≈ 31.8 µM) | MIC (MRSA ATCC 43300): 32 µg/mL (≈ 127 µM) | MIC (P. aeruginosa CMCC 10211; CMCC10211, 24 h): > 64 µg/mL | MIC (E. coli ATCC 25922; ATCC25922, 24 h): 64 µg/mL (≈ 255 µM) | MIC (E. coli 1924; Escherichia coli, 1924, 24 h): 8 µg/mL (≈ 31.8 µM) | MIC (C. albicans CMCC 98001; [7]): > 64 µg/mL

CN1C(=O)/C(=C(\O)c2ccc(Cl)cc2)c2ccccc21 [Compound 10e, (Z)-3-((4-chlorophenyl)(hydroxy)methylene)-1-methylindolin-2-one]
MIC (S. aureus 4220): 8 µg/mL (≈ 28 µM) | MIC (S. aureus ATCC 6538): 2 µg/mL (≈ 7 µM) | MIC (MRSA ATCC 43300): 16 µg/mL (≈ 56 µM) | MIC (P. aeruginosa CMCC 10211; CMCC10211, 24 h): > 64 µg/mL | MIC (E. coli ATCC 25922; ATCC25922, 24 h): 64 µg/mL (≈ 224 µM) | MIC (E. coli 1924; Escherichia coli, 1924, 24 h): 8 µg/mL (≈ 28 µM) | MIC (C. albicans CMCC 98001; [7]): 64 µg/mL (≈ 224 µM)

COc1ccc(CN2C(=O)/C(=C(/C)O)c3ccccc32)cc1 [Compound 5w, (Z)-3-(1-hydroxyethylidene)-1-(4-methoxybenzyl)indolin-2-one]
MIC (S. aureus 4220; [1]): > 64 µg/mL | MIC (S. aureus ATCC 6538; [6]): 64 µg/mL (≈ 217 µM) | MIC (MRSA ATCC 43300; read-out: MIC): 64 µg/mL (≈ 217 µM) | MIC (P. aeruginosa CMCC 10211; [2]): > 64 µg/mL | MIC (E. coli ATCC 25922; [3]): > 64 µg/mL | MIC (E. coli 1924; [4]): 8 µg/mL (≈ 27.1 µM) | MIC (C. albicans CMCC 98001; [5]): 32 µg/mL (≈ 108 µM)

C/C(O)=C1/C(=O)N(C)c2ccc(Cl)cc21 [Compound 5k, (Z)-5-chloro-3-(1-hydroxyethylidene)-1-methylindolin-2-one]
MIC (S. aureus ATCC 6538; [6]): 16 µg/mL (≈ 71.5 µM) | MIC (MRSA ATCC 43300; read-out: MIC): > 64 µg/mL | MIC (P. aeruginosa CMCC 10211; [2]): > 64 µg/mL | MIC (E. coli ATCC 25922; [3]): > 64 µg/mL | MIC (E. coli 1924; [4]): 1 µg/mL (≈ 4.47 µM) | MIC (C. albicans CMCC 98001; [5]): 32 µg/mL (≈ 143 µM)

C/C(O)=C1/C(=O)N(C)c2c(C)cccc21 [Compound 5b, (Z)-3-(1-hydroxyethylidene)-1,7-dimethylindolin-2-one]
MIC (S. aureus 4220; [1]): > 64 µg/mL | MIC (S. aureus ATCC 6538; [6]): 64 µg/mL (≈ 315 µM) | MIC (MRSA ATCC 43300; read-out: MIC): > 64 µg/mL | MIC (P. aeruginosa CMCC 10211; [2]): 64 µg/mL (≈ 315 µM) | MIC (E. coli ATCC 25922; [3]): 64 µg/mL (≈ 315 µM) | MIC (E. coli 1924; [4]): 32 µg/mL (≈ 157 µM) | MIC (C. albicans CMCC 98001; [5]): 32 µg/mL (≈ 157 µM)

COc1c(N2CCNC(C)C2)c(F)cc2c(=O)c(C(=O)O)cn(C3CC3)c12 (stereo not drawn) [Gati, Gatifloxacin, reference compound]
MIC (S. aureus 4220; [1]): 0.5 µg/mL (≈ 1.33 µM) | MIC (S. aureus ATCC 6538; [6]): 0.5 µg/mL (≈ 1.33 µM) | MIC (MRSA ATCC 43300; read-out: MIC): 0.5 µg/mL (≈ 1.33 µM) | MIC (P. aeruginosa CMCC 10211; [2]): 0.5 µg/mL (≈ 1.33 µM) | MIC (E. coli ATCC 25922; [3]): 0.5 µg/mL (≈ 1.33 µM) | MIC (E. coli 1924; [4]): 0.5 µg/mL (≈ 1.33 µM) | MIC (C. albicans CMCC 98001; [5]): > 64 µg/mL

C/C(O)=C1/C(=O)N(C)c2c(F)cccc21 [Compound 5e, (Z)-7-fluoro-3-(1-hydroxyethylidene)-1-methylindolin-2-one]
MIC (S. aureus ATCC 6538; [6]): 64 µg/mL (≈ 309 µM) | MIC (MRSA ATCC 43300; read-out: MIC): 64 µg/mL (≈ 309 µM) | MIC (P. aeruginosa CMCC 10211; [2]): > 64 µg/mL | MIC (E. coli ATCC 25922; [3]): > 64 µg/mL | MIC (E. coli 1924; [4]): 16 µg/mL (≈ 77.2 µM) | MIC (C. albicans CMCC 98001; [5]): 32 µg/mL (≈ 154 µM)

C/C(O)=C1/C(=O)N(C)c2cc(Br)ccc21 [Compound 5m, (Z)-6-bromo-3-(1-hydroxyethylidene)-1-methylindolin-2-one]
MIC (S. aureus 4220; [1]): > 64 µg/mL | MIC (S. aureus ATCC 6538; [6]): 32 µg/mL (≈ 119 µM) | MIC (MRSA ATCC 43300; read-out: MIC): 64 µg/mL (≈ 239 µM) | MIC (P. aeruginosa CMCC 10211; [2]): > 64 µg/mL | MIC (E. coli ATCC 25922; [3]): > 64 µg/mL | MIC (E. coli 1924; [4]): 16 µg/mL (≈ 59.7 µM) | MIC (C. albicans CMCC 98001; [5]): 64 µg/mL (≈ 239 µM)

C/C(O)=C1/C(=O)N(C)c2cc(C)ccc21 [Compound 5c, (Z)-3-(1-hydroxyethylidene)-1,6-dimethylindolin-2-one]
MIC (S. aureus 4220; [1]): > 64 µg/mL | MIC (S. aureus ATCC 6538; [6]): 64 µg/mL (≈ 315 µM) | MIC (MRSA ATCC 43300; read-out: MIC): > 64 µg/mL | MIC (P. aeruginosa CMCC 10211; [2]): 64 µg/mL (≈ 315 µM) | MIC (E. coli ATCC 25922; [3]): 64 µg/mL (≈ 315 µM) | MIC (E. coli 1924; [4]): 16 µg/mL (≈ 78.7 µM) | MIC (C. albicans CMCC 98001; [5]): 16 µg/mL (≈ 78.7 µM)
